A word on the IC50: it is the concentration that inhibits the measured activity by half. A higher IC50 goes with lower potency.

Nine molecules from ChEMBL document CHEMBL1126412, “RP 70676: A potent systematically available inhibitor of acyl-CoA:cholesterol O-acyl transferase (ACAT)” (Bioorg Med Chem Lett, 1992) can be followed below.

The target of test [1] is T1, Sterol O-acyltransferase 1 (Rattus norvegicus, UniProt O70536).
T1 sequence (O70536 whole entry): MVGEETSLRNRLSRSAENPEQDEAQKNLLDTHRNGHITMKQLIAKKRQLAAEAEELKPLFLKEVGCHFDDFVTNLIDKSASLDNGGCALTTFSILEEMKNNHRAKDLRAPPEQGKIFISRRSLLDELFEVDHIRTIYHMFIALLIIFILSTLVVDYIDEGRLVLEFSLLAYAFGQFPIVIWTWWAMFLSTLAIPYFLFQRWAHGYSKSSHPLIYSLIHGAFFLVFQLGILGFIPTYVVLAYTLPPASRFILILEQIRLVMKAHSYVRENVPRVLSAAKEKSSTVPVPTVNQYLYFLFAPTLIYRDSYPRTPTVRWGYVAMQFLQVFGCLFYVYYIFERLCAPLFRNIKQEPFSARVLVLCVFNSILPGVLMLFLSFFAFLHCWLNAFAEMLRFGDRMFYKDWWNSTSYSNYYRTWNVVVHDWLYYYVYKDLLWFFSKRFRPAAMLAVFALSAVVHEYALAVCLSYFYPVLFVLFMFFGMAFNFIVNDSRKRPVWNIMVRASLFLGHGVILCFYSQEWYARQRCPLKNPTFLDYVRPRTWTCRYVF
The experiment in a line: Concentration required for the inhibition of cholesterol O-acyl transferase (ACAT) from rat liver.

The target in test [2] is T2, Acyl-CoA:cholesterol acyltransferase (Oryctolagus cuniculus, UniProt Q95214).
T2 sequence (Q95214 whole entry): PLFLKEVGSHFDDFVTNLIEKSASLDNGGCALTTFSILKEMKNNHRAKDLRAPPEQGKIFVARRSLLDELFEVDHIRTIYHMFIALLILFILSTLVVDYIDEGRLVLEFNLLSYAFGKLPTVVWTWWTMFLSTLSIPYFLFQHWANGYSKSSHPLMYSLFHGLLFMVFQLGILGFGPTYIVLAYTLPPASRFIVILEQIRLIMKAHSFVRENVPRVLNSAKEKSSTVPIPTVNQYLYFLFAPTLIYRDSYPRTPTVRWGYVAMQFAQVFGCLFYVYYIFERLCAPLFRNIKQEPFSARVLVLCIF
Description: Concentration required for the inhibition of cholesterol O-acyl transferase (ACAT) from cholesterol fed rabbit liver.

The species entered for test [3] is Oryctolagus cuniculus. The experiment in a line: Percent change of cholesterol esters level in abdominal aorta of NZW rabbits from control. Format: functional.
For test [4], the species on record is Oryctolagus cuniculus. The experiment in a line: Percent change of free cholesterol level in abdominal aorta of NZW rabbits from control. Format: functional.
For test [5], the species on record is Oryctolagus cuniculus. Description: Percent change of plasma cholesterol level in NZW rabbits from control. Type of test: functional.
The species entered for test [6] is Oryctolagus cuniculus. Description: Percent change of cholesterol esters level in abdominal aorta of NZW rabbits form control. Format: functional.
For test [7], the species on record is Oryctolagus cuniculus. Description: Percent change of plasma cholesterol level in NZW rabbits form control. Format: functional.
The species entered for test [8] is Oryctolagus cuniculus. Description: Percent change of cholesterol ester level in thoracic aorta of NZW rabbits form control. Type of test: functional.
The species named for test [9] is Oryctolagus cuniculus. The experiment in a line: Evaluated for the reduction of plasma cholesterol level in NZW rabbits with 5% cholesterol in diet; AUC; mM.days. Format: functional.
Test [10] is filed under the species Oryctolagus cuniculus. The experiment in a line: Percent change of free cholesterol levels in thoracic aorta of NZW rabbits from control. Format: functional.
The species named for test [11] is Oryctolagus cuniculus. Description: Percent change of free cholesterol level in abdominal aorta of NZW rabbits form control. Type of test: functional.
The species named for test [12] is Oryctolagus cuniculus. Description: Evaluated for the reduction of plasma cholesterol level in NZW rabbits with 0.25% cholesterol in diet. Type of test: functional.
The species entered for test [13] is Oryctolagus cuniculus. Description: Percent change of cholesterol ester level in thoracic aorta of NZW rabbits from control. Type of test: functional.
Test [14] is filed under the species Oryctolagus cuniculus. Description: Percent change of free cholesterol levels in thoracic aorta of NZW rabbits form control. Format: functional.
Test [15] has as its target T3, Sterol O-acyltransferase 1 (Cricetulus griseus, UniProt Q60457).
T3 sequence (Q60457 whole entry): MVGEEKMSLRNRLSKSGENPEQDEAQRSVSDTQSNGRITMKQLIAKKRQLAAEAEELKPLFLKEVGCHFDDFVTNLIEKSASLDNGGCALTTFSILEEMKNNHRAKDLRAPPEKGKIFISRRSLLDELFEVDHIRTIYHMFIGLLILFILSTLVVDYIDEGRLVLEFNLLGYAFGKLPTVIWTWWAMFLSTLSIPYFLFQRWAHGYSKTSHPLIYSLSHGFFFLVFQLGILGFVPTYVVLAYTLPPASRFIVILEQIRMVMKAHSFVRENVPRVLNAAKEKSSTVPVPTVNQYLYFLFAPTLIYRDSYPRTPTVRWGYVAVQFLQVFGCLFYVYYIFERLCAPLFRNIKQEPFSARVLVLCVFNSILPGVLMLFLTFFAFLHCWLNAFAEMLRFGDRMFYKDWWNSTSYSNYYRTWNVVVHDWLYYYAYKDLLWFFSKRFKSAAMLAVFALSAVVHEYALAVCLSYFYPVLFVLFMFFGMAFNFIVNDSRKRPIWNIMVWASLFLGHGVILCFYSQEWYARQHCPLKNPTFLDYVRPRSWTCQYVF
The experiment in a line: Concentration required for the inhibition of Cholesterol O-acyl transferase from hamster liver.

A value given as a limit tells only on which side of the number the result lay.

Consider `Cn1ccnc1S(=O)(=O)CCCSc1nc(-c2ccccc2)c(-c2ccccc2)[nH]1`, for which the IC50 in [1] worked out at 11 nM; in [2], 8000 nM.
In the case of `Cn1ccnc1SCCCCSc1nc(-c2ccccc2)c(-c2ccccc2)[nH]1`, the IC50 stood at 38 nM in test [1] and 180 nM in [2].
Taken in the same sequence, the figures for `c1ccc(-c2nc(SCCCCCn3cccn3)[nH]c2-c2ccccc2)cc1` were 24 nM and 280 nM.
Taken in the same sequence, the figures for `c1ccc(-c2nc(SCCCCCCn3cccn3)[nH]c2-c2ccccc2)cc1` were 48 nM and 590 nM.
Taken in the same sequence, the figures for `c1ccc(-c2nc(SCCCn3cccn3)[nH]c2-c2ccccc2)cc1` were 50 nM and more than 1000 nM.
`c1ccc(-c2nc(SCCCCCSc3ncc[nH]3)[nH]c2-c2ccccc2)cc1`: the IC50 in [1] is 44 nM; in test [2], 880 nM.
On to `Cc1cc(C)n(CCCCCSc2nc(-c3ccccc3)c(-c3ccccc3)[nH]2)n1`, for which the Change in the test listed under Oryctolagus cuniculus [3] is on record as less than -40%; in the test listed under Oryctolagus cuniculus [4], less than -27%; in the test listed under Oryctolagus cuniculus [5] it was less than -40%; in the test filed under Oryctolagus cuniculus [6] it was less than -46%; in the test listed under Oryctolagus cuniculus [7], less than -46%; in the test filed under Oryctolagus cuniculus [8], less than -40%. Moreover, the Change in the test filed under Oryctolagus cuniculus [10] is less than -36%; in the test listed under Oryctolagus cuniculus [11] it was less than -36%; in the test filed under Oryctolagus cuniculus [13] it was less than -42%; in the test listed under Oryctolagus cuniculus [14], less than -44%. Moreover, the AUC in the test filed under Oryctolagus cuniculus [9] was determined as 1440 mM·days; in the test listed under Oryctolagus cuniculus [12], 776 mM·days. In test [15], this molecule gave an IC50 of 12 nM.
On to `Cn1ccnc1SCCCSc1nc(-c2ccccc2)c(-c2ccccc2)[nH]1`, for which the IC50 in test [1] was found to be 14 nM; in [2] it was 970 nM.
With `CCCCCCCN(CCCCCSc1nc(-c2ccccc2)c(-c2ccccc2)[nH]1)C(=O)Nc1ccc(F)cc1F` [LECIMIBIDE], half-maximal inhibition in [1] (IC50) required 10 nM.
